Measurements reported in PubChem BioAssay AID1259407 (Chemical Carcinogenesis Research Information System (CCRIS), 2018).
The source made the active and inactive calls. How the calls were made is not given here. Where a SMILES comes first, the peptide text is derived from it.

Test system: CCRIS mutagenicity, Ames/micronucleus/aberration tests
Assay: CCRIS mutagenicity studies
[1] = Test System: AMES SALMONELLA TYPHIMURIUM, Strain/Indicator: TA98, Metabolic Activation: NONE, Method: STANDARD PLATE
[2] = Test System: AMES SALMONELLA TYPHIMURIUM, Strain/Indicator: TA100, Metabolic Activation: NONE, Method: STANDARD PLATE
[3] = Test System: AMES SALMONELLA TYPHIMURIUM, Strain/Indicator: TA1535, Metabolic Activation: NONE, Method: STANDARD PLATE
[4] = Test System: AMES SALMONELLA TYPHIMURIUM, Strain/Indicator: TA100, Metabolic Activation: NONE, Method: PREINCUBATION
[5] = Test System: AMES SALMONELLA TYPHIMURIUM, Strain/Indicator: TA1535, Metabolic Activation: NONE, Method: PREINCUBATION
[6] = Test System: AMES SALMONELLA TYPHIMURIUM, Strain/Indicator: TA102, Metabolic Activation: NONE, Method: STANDARD PLATE
[7] = Test System: AMES SALMONELLA TYPHIMURIUM, Strain/Indicator: TA98, Metabolic Activation: RAT, LIVER, S-9, AROCLOR 1254, Method: STANDARD PLATE
[8] = Test System: AMES SALMONELLA TYPHIMURIUM, Strain/Indicator: TA100, Metabolic Activation: RAT, LIVER, S-9, AROCLOR 1254, Method: STANDARD PLATE
[9] = Test System: AMES SALMONELLA TYPHIMURIUM, Strain/Indicator: TA1535, Metabolic Activation: RAT, LIVER, S-9, AROCLOR 1254, Method: STANDARD PLATE
[10] = Test System: AMES SALMONELLA TYPHIMURIUM, Strain/Indicator: TA1537, Metabolic Activation: NONE, Method: STANDARD PLATE
[11] = Test System: AMES SALMONELLA TYPHIMURIUM, Strain/Indicator: TA1537, Metabolic Activation: RAT, LIVER, S-9, AROCLOR 1254, Method: STANDARD PLATE

Compound: C[C@@H]1C[C@H]2[C@@H]3CCC4=CC(=O)C=C[C@]4(C)[C@@]3(F)[C@@H](O)C[C@]2(C)[C@@]1(O)C(=O)CO
- mutagenic call (End Point: IN VITRO CHROMOSOMAL ABERRATIONS, Test System: HUMAN PERIPHERAL LYMPHOCYTES, Metabolic Activation: NONE): active; positive at 10 and 100 ug/ml with 72 hr treatment
- mutagenic call (End Point: IN VIVO MICRONUCLEUS, Test System: BONE MARROW POLYCHROMATIC ERYTHROCYTES, Species: MOUSE, Strain/Sex: SWISS/MALE, Route: IP INJECTION (SINGLE DOSE)): active; positive
- mutagenic call (Test System: AMES SALMONELLA TYPHIMURIUM, Strain/Indicator: TA97A, Metabolic Activation: NONE, Method: STANDARD PLATE): inactive; negative
- mutagenic call (Test System: AMES SALMONELLA TYPHIMURIUM, Strain/Indicator: TA97A, Metabolic Activation: RAT, LIVER, S-9, PHENOBARBITAL, Method: STANDARD PLATE): inactive; negative
- mutagenic call [1]: inactive; negative
- mutagenic call (Test System: AMES SALMONELLA TYPHIMURIUM, Strain/Indicator: TA98, Metabolic Activation: RAT, LIVER, S-9, PHENOBARBITAL, Method: STANDARD PLATE): inactive; negative
- mutagenic call [2]: inactive; negative
- mutagenic call (Test System: AMES SALMONELLA TYPHIMURIUM, Strain/Indicator: TA100, Metabolic Activation: RAT, LIVER, S-9, PHENOBARBITAL, Method: STANDARD PLATE): inactive; negative
- mutagenic call [3]: inactive; negative
- mutagenic call (Test System: AMES SALMONELLA TYPHIMURIUM, Strain/Indicator: TA1535, Metabolic Activation: RAT, LIVER, S-9, PHENOBARBITAL, Method: STANDARD PLATE): inactive; negative

Compound: NS(=O)(=O)c1cccc2cccnc12
- mutagenic call (Test System: AMES SALMONELLA TYPHIMURIUM, Strain/Indicator: TA100, Metabolic Activation: S-9, Method: PREINCUBATION): inactive; negative

Compound: CC(=O)N(C)c1ccc(N=Nc2ccc(N(C)C)cc2)cc1
- mutagenic call (Test System: AMES SALMONELLA TYPHIMURIUM, Strain/Indicator: TA98, Metabolic Activation: RAT, LIVER, S-9, POLYCHLORINATED BIPHENYLS, Method: PREINCUBATION): active; positive
- mutagenic call (Test System: AMES SALMONELLA TYPHIMURIUM, Strain/Indicator: TA100, Metabolic Activation: RAT, LIVER, S-9, POLYCHLORINATED BIPHENYLS, Method: PREINCUBATION): active; positive

Compound: COc1ccc(CC2CO2)cc1 (centres undefined)
- mutagenic call [4]: active; positive
- mutagenic call [2]: active; positive
- mutagenic call [5]: active; positive
- mutagenic call [3]: active; positive

Compound: CCOc1ccc(N(O)C(=O)CC(C)O)cc1 (centres undefined)
- mutagenic call (Test System: AMES SALMONELLA TYPHIMURIUM, Strain/Indicator: TA100, Metabolic Activation: HAMSTER, LIVER, S-9, KANECHLOR 400 (WITHOUT NADPH GENERATING SYSTEM), Method: PREINCUBATION): active; positive
- mutagenic call [4]: inactive; negative

Compound: CC(O)CN(CCN(CC(C)O)CC(C)O)CC(C)O (centres undefined)
- mutagenic call (Test System: AMES SALMONELLA TYPHIMURIUM, Strain/Indicator: TA97, Metabolic Activation: NONE, Method: STANDARD PLATE): inactive; negative
- mutagenic call (Test System: AMES SALMONELLA TYPHIMURIUM, Strain/Indicator: TA97, Metabolic Activation: S-9, Method: STANDARD PLATE): inactive; negative
- mutagenic call [1]: inactive; negative
- mutagenic call (Test System: AMES SALMONELLA TYPHIMURIUM, Strain/Indicator: TA98, Metabolic Activation: S-9, Method: STANDARD PLATE): inactive; negative
- mutagenic call [2]: inactive; negative
- mutagenic call (Test System: AMES SALMONELLA TYPHIMURIUM, Strain/Indicator: TA100, Metabolic Activation: S-9, Method: STANDARD PLATE): inactive; negative
- mutagenic call [6]: inactive; negative
- mutagenic call (Test System: AMES SALMONELLA TYPHIMURIUM, Strain/Indicator: TA102, Metabolic Activation: S-9, Method: STANDARD PLATE): inactive; negative
- mutagenic call (Test System: E.COLI, Strain/Indicator: WP2 (PKM101), Metabolic Activation: NONE, Method: STANDARD PLATE): inactive; negative
- mutagenic call (Test System: E.COLI, Strain/Indicator: WP2 (PKM101), Metabolic Activation: S-9, Method: STANDARD PLATE): inactive; negative

Compound: C[C@]12C=CC3=C4CCC(=O)C=C4CC[C@H]3[C@@H]1CC[C@H]2O
- mutagenic call [1]: inactive; negative
- mutagenic call [7]: inactive; negative
- mutagenic call [2]: inactive; negative
- mutagenic call [8]: inactive; negative
- mutagenic call [3]: inactive; negative
- mutagenic call [9]: inactive; negative
- mutagenic call [10]: inactive; negative
- mutagenic call [11]: inactive; negative
- mutagenic call (Test System: AMES SALMONELLA TYPHIMURIUM, Strain/Indicator: TA1538, Metabolic Activation: NONE, Method: STANDARD PLATE): inactive; negative
- mutagenic call (Test System: AMES SALMONELLA TYPHIMURIUM, Strain/Indicator: TA1538, Metabolic Activation: RAT, LIVER, S-9, AROCLOR 1254, Method: STANDARD PLATE): inactive; negative
- mutagenic call (Test System: CHO/HGPRT, Strain/Indicator: CHO-K1-BH4, Metabolic Activation: NONE, Method: STANDARD PLATE): inactive; negative
- mutagenic call (Test System: CHO/HGPRT, Strain/Indicator: CHO-K1-BH4, Metabolic Activation: RAT, LIVER, S-9, AROCLOR 1254, Method: STANDARD PLATE): inactive; negative

Compound: CC(C)C[C@H](NC(=O)[C@H](Cc1ccccc1)NC(=O)CNC(=O)CN)C(=O)O (H-GGFL-OH)
- mutagenic call [1]: inactive; negative
- mutagenic call [7]: inactive; negative
- mutagenic call [2]: inactive; negative
- mutagenic call [8]: inactive; negative
- mutagenic call [3]: inactive; negative
- mutagenic call [9]: inactive; negative
- mutagenic call [10]: inactive; negative
- mutagenic call [11]: inactive; negative

Compound: CN[C@@H]1[C@H](O[C@H]2[C@H](O[C@H]3[C@H](O)[C@@H](O)[C@H](N=C(N)N)[C@@H](O)[C@@H]3N=C(N)N)O[C@@H](C)[C@]2(O)C=O)O[C@@H](CO)[C@H](O)[C@H]1O
- mutagenic call (Test System: AMES SALMONELLA TYPHIMURIUM, Strain/Indicator: TA98, Metabolic Activation: HAMSTER, LIVER, S-9, AROCLOR 1254, Method: PREINCUBATION): inactive; negative
- mutagenic call (Test System: AMES SALMONELLA TYPHIMURIUM, Strain/Indicator: TA98, Metabolic Activation: NONE, Method: PREINCUBATION): inactive; negative
- mutagenic call (Test System: AMES SALMONELLA TYPHIMURIUM, Strain/Indicator: TA98, Metabolic Activation: RAT, LIVER, S-9, AROCLOR 1254, Method: PREINCUBATION): inactive; negative
- mutagenic call (Test System: AMES SALMONELLA TYPHIMURIUM, Strain/Indicator: TA100, Metabolic Activation: HAMSTER, LIVER, S-9, AROCLOR 1254, Method: PREINCUBATION): inactive; negative
- mutagenic call [4]: inactive; negative
- mutagenic call (Test System: AMES SALMONELLA TYPHIMURIUM, Strain/Indicator: TA100, Metabolic Activation: RAT, LIVER, S-9, AROCLOR 1254, Method: PREINCUBATION): inactive; negative
- mutagenic call [6]: active; positive
- mutagenic call (Test System: AMES SALMONELLA TYPHIMURIUM, Strain/Indicator: TA102, Metabolic Activation: RAT, LIVER, S-9, AROCLOR 1254, Method: STANDARD PLATE): active; positive
- mutagenic call (Test System: AMES SALMONELLA TYPHIMURIUM, Strain/Indicator: TA1535, Metabolic Activation: HAMSTER, LIVER, S-9, AROCLOR 1254, Method: PREINCUBATION): inactive; negative
- mutagenic call [5]: inactive; negative
- mutagenic call (Test System: AMES SALMONELLA TYPHIMURIUM, Strain/Indicator: TA1535, Metabolic Activation: RAT, LIVER, S-9, AROCLOR 1254, Method: PREINCUBATION): inactive; negative
- mutagenic call (Test System: AMES SALMONELLA TYPHIMURIUM, Strain/Indicator: TA1537, Metabolic Activation: HAMSTER, LIVER, S-9, AROCLOR 1254, Method: PREINCUBATION): inactive; negative
- mutagenic call (Test System: AMES SALMONELLA TYPHIMURIUM, Strain/Indicator: TA1537, Metabolic Activation: NONE, Method: PREINCUBATION): inactive; negative
- mutagenic call (Test System: AMES SALMONELLA TYPHIMURIUM, Strain/Indicator: TA1537, Metabolic Activation: RAT, LIVER, S-9, AROCLOR 1254, Method: PREINCUBATION): inactive; negative
- mutagenic call (Test System: AMES SALMONELLA TYPHIMURIUM, Strain/Indicator: TA2638A, Metabolic Activation: NONE, Method: STANDARD PLATE): inactive; negative
